Measurements published in patent publication US20210401710A1, “AZOXYSTROBIN EFFICACY IN PERSONAL CARE FORMS” (The Procter & Gamble Company, priority 2020, published 2021).

Tested on: Malassezia furfur (CBS 7982)
Experiment: In Vitro Antifungal Minimum Inhibitory Concentration (MIC) Testing
Format: cell-based
Conditions: azoxystrobin itself against Malassezia, value used in the model
Procedure: Malassezia furfur (CBS 7982) is maintained continuously as a culture at 31° C. in a 250-ml vent-capped polycarbonate Erlenmeyer flask by combining approximately 50 ml of mDixon growth medium and 2.5 ml of previously grown Malassezia culture. For each assay, Malassezia cells from 24-hour-old culture (approximately 7.5×10^8 cells/ml) are diluted 500-fold into mDixon growth medium. Micropipettes are used to transfer 295 ul of diluted cells to each well of a Beckman 267007 polypropylene round-bottom deep-well plate. Product forms are prepared for testing as concentrated stocks in water. Micropipettes are used to transfer 5 ul of appropriately diluted product form to the diluted Malassezia cells in the round-bottom deep-well plate. A semipermeable sealing film is applied to the plate which is then covered with water-soaked cotton batting. The deep-well plates are shaken at 31° C. on a Heidolph Titramax 1000 shaker at 1350 rpm for approximately 20 hours. The samples are mixed by micropipetting before transferring 200 ul of sample culture from each well to a Corning 3596 polystyrene plate. The plates are read immediately for absorbance at 600 nm using a Molecular Devices SpectraMax M5 plate reader. MIC values are presented as ppm of active.

CO/C=C(/C(=O)OC)c1ccccc1Oc1cc(Oc2ccccc2C#N)ncn1 [Azoxystrobin]
minimal inhibitory concentration (MIC): 0.2-0.9 ppm
